Results from patent publication US20100113391A1, “BICYCLIC HETEROCYCLIC COMPOUND” (Astellas Pharma Inc., priority 2007, published 2010).

Legend:
[1] = system: human platelets (platelet rich plasma), ADP-induced aggregation; assay: Human platelet aggregation inhibitory activity measurement test (ADP-induced, PRP); assay type: cell-based; details: compound 10 μM (final concentration); ADP-induced aggregation of human PRP; area under the platelet aggregation curve
Method: Test Method (1) Human Platelet Aggregation Inhibitory Activity Measurement Test
Using a syringe in which 1/10 vol of a 3.8% sodium citrate solution is contained, blood was collected from a healthy volunteer (adult). The blood was subjected to a centrifugation at 160×g for 10 minutes and a supernatant platelet rich plasma (PRP) was separated. The remaining blood of which the PRP has been collected was subjected to a centrifugation at 1,800×g for 10 minutes and a platelet poor plasma (PPP) was separated. The number of the platelets in the PRP was measured using an automatic blood cell counter (MEK-6258, Nihon Kohden Corporation). After that, the PPP was added to the PRP to adjust the number of the platelets to 3×10^8 /ml, thereby using the platelets for the following tests. As an ADP, which is a platelet aggregating agent, a product manufactured by MC Medical Inc. was used. The platelet aggregation was measured using a platelet aggregometer (MCM Hematracer 212; MC medical Inc.). That is, 80 μl of the PRP having the number of the platelets of 3×10^8 /ml and 10 μl of a test compound solution or solvent (10% DMSO or 10% DMSO-9% hydroxypropyl-β-cyclodextrin-4.5% d-mannitol) were incubated at 37° C. for 1 minute and then 10 μl of ADP (50 μM) was added to the mixture to cause platelet aggregation, thereby recording a variation in transmitted light for 5 minutes. An inhibition rate was calculated using an area under the platelet aggregation curve as an index. In addition, Ex represents a number of the compounds of Examples.

[2] = system: rat platelets (PRP), ADP-induced aggregation; assay: Rat platelet aggregation inhibition test (ex vivo after oral administration); assay type: in vivo; details: male SD rat, 30 mg/kg orally, blood collected 2 hours after administration; ADP-induced aggregation of PRP
Method: Test Method (3) Rat Platelet Aggregation Inhibition Test and Measurement of Test Compound Concentration in Plasma
An aqueous sodium hydroxide solution and the same amount of a 1% aqueous methyl cellulose solution were added to the compound of the invention to prepare a 0.5% aqueous methyl cellulose solution or a suspension solution. This preparation solution was orally administered to a male SD rat (5 to 7 weeks old) which has been fasted over 12 hours using a sonde at a dose of 30 mg/kg. After 2 hours later since the administration of the compound, using a syringe in which 1/10 vol of a 3.8% sodium citrate solution is contained, a blood was collected. In the same manner as in Test Method (1), a PPP and a PRP having the number of the platelets as 3×10^8 /ml were prepared. 90 μl of the PRP having the number of the platelets of 3×10^8 /ml was incubated at 37° C. for 1 minute and then 10 μl of ADP (50 μM) was added thereto to cause platelet aggregation, thereby recording a variation in transmitted light for 5 minutes. An inhibition rate was calculated using an area under the platelet aggregation curve as an index.

Human P2Y12 = target: T1, Human P2Y12 (Homo sapiens, UniProt Q9H244); assay: Substitution test for the binding between human P2Y12 and 2-methylthio-ADP (2-MeS-ADP); details: compound 30 nM (final concentration); [33P]-2-MeS-ADP binding to P2Y12 protein-expressing C6-15 cell membrane fraction
T1 construct: expressed in transfected cells
Method: Test Method (2) Substitution Test for the binding between Human P2Y12 and 2-methylthio-ADP(2-MeS-ADP)
In a 10 cm petri dish, C6-15 cells were spread to be 1×10^6 of cells by using a DMEM culture medium and cultured for 1 day. After that, genes of plasmids such as 8 μg of pEF-BOS-dhfr-human P2Y12 and 0.8 μg of pEF-BOS-neo (Nucleic Acid Res., 18, 5322, 1990) were introduced to the cells using a transfection reagent (LipofectAMINE 2000; manufactured by GIBCO BRL Inc.).
After 24 hours since the above-mentioned gene introduction operation had been completed, the cells to which the genes were introduced were recovered and suspended in a DMEM culture medium containing 0.6 mg/ml of G418 (manufactured by GIBCO BRL Inc.). After that, the cells were serially diluted and spread on a 10 cm petri dish. Colonies appeared after 2 weeks later were individually collected and used in the following tests as P2Y12 protein-expressing C6-15 cells (WO 02/36631, Mol. Pharmacol., 60, 432, 2001).
The P2Y12 protein-expressing C6-15 cells were cultured and then the cells were recovered. The cells were washed with PBS, suspended in 20 mM Tris-HCl (pH 7.4) containing 5 mmol/l EDTA and Complete™ (manufactured by Boehringer Mannheim) which is a protease inhibitor cocktail set, and homogenized by Polytron. The cells were subjected to an ultracentrifugation and a precipitate is suspended in 50 mM Tris-HCl (pH 7.4) containing 1 mM of EDTA, 100 mM NaCl, and Complete™ to perform membrane fraction.
To 100 μl of the P2Y12 protein-expressing C6-15 cell membrane fraction (100 μg/ml) produced as mentioned above, 1.5 μl of a test compound solution and 50 μl of 0.75 nM [^33P]-2-MeS-ADP (2100 Ci/mmol, manufactured by PerkinElmer Inc.) were added. The mixture was incubated in 50 mM Tris-HCl (pH 7.4) containing 100 mM NaCl and 50 mM MgCl2 at room temperature for 1 hour, and then recovered by cell harvest on a glass filter. Microscintillators were added to the glass filter and the radioactive activity was measured by a liquid scintillation counter. In addition, simultaneously, the radioactivity in the case where only a solvent is added to the above-mentioned test and in the case where 1.5 μl of 250 μM ADP is added thereto were measured respectively as the total binding amount and the nonspecific binding amount. The total binding amount and the nonspecific binding amount were set respectively as the inhibition rate of 0% and the inhibition rate of 100% to calculate the inhibition rate (%) of the test compound.

T1 sequence (Q9H244 whole entry): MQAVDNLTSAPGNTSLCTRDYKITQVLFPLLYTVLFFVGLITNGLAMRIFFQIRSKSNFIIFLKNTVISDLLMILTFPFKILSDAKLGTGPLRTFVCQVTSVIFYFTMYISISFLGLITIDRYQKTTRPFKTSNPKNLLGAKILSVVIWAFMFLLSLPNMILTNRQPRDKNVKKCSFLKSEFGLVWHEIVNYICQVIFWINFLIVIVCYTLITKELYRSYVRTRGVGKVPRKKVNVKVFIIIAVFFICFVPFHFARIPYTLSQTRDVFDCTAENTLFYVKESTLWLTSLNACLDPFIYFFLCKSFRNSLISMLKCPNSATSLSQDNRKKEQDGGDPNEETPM

Row | SMILES | inhibition at 10 µM [1] | % Inhibition [2] | inhibition at 0.03 µM (Human P2Y12)
1 | CC(CCn1c(=O)c2cc(F)c(NC3CCCCC3)cc2n(C2CCCC2)c1=O)C(=O)O (centres unmarked) [Example 114] | 91% | 90% | 71%
2 | O=C(O)CNC(=O)Cn1c(=O)c2cc(F)c(NC3CCCCC3)cc2n(C2CCCC2)c1=O [Example 42] | 75% | – | 56%
3 | CC(C)n1c(=O)n(CCCC(=O)O)c(=O)c2cc(F)c(NC3CCCCC3)cc21 [Example 77] | 88% | – | –
4 | O=C(O)CCCNn1c(=O)c2cc(F)c(NC3CCCCC3)cc2n(C2CCCC2)c1=O [Example 155] | 93% | – | 72%
5 | O=C(O)/C=C/Cn1c(=O)c2cc(F)c(NC3CCCCC3)cc2n(C2CCCC2)c1=O [Example 65] | 86% | 56% | –
6 | O=C(O)Cn1c(=O)c2cc(F)c(NCC3CC3)cc2n(C2CCCC2)c1=O [Example 69] | 50% | – | –
7 | O=C(O)COc1cccc(Cn2c(=O)c3cc(F)c(NC4CCCCC4)cc3n(C3CCCC3)c2=O)c1 [Example 157] | – | – | 67%
8 | O=C(O)COn1c(=O)c2cc(F)c(NC3CCCCC3)cc2n(C2CCCC2)c1=O [Example 24, {[7-(cyclohexylamino)-1-cyclopentyl-6-fluoro-2,4-dioxo-1,4-dihydroquinazolin-3(2H)-yl]oxy}acetic acid] | 89% | – | 60%
